Assay results taken from ChEMBL document CHEMBL1201862, “PubChem BioAssay data set” (2004).
Several values for one entry are separate records, joined by “and”; a condition that tells them apart may be missing. Identical values can stand only once.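 Assay format: 96-well plates, 48-hour exposure. GI50 = concentration required for 50% inhibition of growth.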 Activity calls are given as the source filed them. Rule as the data show it: active = GI50 up to about 1.1 µM and inactive = higher.

How the values were obtained:
Assay in all cases: NCI anticancer screen, dose series, 48 h
CAKI-1 = test system: CAKI-1
CCRF-CEM = test system: CCRF-CEM
HCC 2998 = test system: HCC 2998
HCT-15 = test system: HCT-15
HL-60 = test system: HL-60
Hs-578T = test system: Hs-578T
KM12 = test system: KM12
MDA-MB-435 = test system: MDA-MB-435
MOLT-4 = test system: MOLT-4
NCI/ADR-RES = test system: NCI/ADR-RES
OVCAR-5 = test system: OVCAR-5
SF-295 = test system: SF-295
SF-539 = test system: SF-539
SK-MEL-2 = test system: SK-MEL-2
SR = test system: SR
SW-620 = test system: SW-620
UACC-257 = test system: UACC-257
UO-31 = test system: UO-31
U-251 = test system: U-251
MDA-MB-231 = test system: MDA-MB-231

Row | SMILES | GI50 (CAKI-1) | GI50 (CCRF-CEM) | GI50 (HCC 2998) | GI50 (HCT-15) | GI50 (HL-60) | GI50 (Hs-578T) | GI50 (KM12) | GI50 (MDA-MB-435) | GI50 (MOLT-4) | GI50 (NCI/ADR-RES) | GI50 (OVCAR-5) | GI50 (SF-295) | GI50 (SF-539) | GI50 (SK-MEL-2) | GI50 (SR) | GI50 (SW-620) | GI50 (UACC-257) | GI50 (UO-31) | GI50 (U-251) | GI50 (MDA-MB-231)
1 | CCC(=O)Nc1ccc(NCC(=O)Nc2ccc(Cl)cc2)cc1 | 14.3 µM (inactive) | 12.5 µM (inactive) | 13.2 µM (inactive) | 14.4 µM | 14.1 µM (inactive) | 37 µM (inactive) | 12.7 µM (inactive) | 15.7 µM (inactive) | 21 µM (inactive) | 33.2 µM (inactive) | 13.9 µM (inactive) | 14.4 µM (inactive) | 18.1 µM (inactive) | 14.8 µM (inactive) | 21.3 µM (inactive) | 24.7 µM (inactive) | 16.6 µM (inactive) | 22.3 µM (inactive) | – | –
2 | CCOC(OC1=C(C#N)CCCC1)C(CC)[Se]c1ccccc1 (configuration not stated) | 53.1 µM (inactive) | 15.7 µM (inactive) | 35.2 µM (inactive) | 16.2 µM | 10.1 µM (inactive) | – | > 100 µM (inactive) | – | 20.7 µM (inactive) | – | 32.4 µM (inactive) | 27.6 µM (inactive) | 14.3 µM (inactive) | 29.4 µM (inactive) | 7.8 µM (inactive) | – | 46.7 µM (inactive) | 37.8 µM (inactive) | 13 µM (inactive) | –
3 | Cc1ccc2nc3n(c2c1)C(c1c(F)cccc1F)SC3 (configuration not stated) | 19.1 µM (inactive) | > 100 µM (inactive) | > 100 µM (inactive) | > 100 µM | 71.6 µM (inactive) | > 100 µM (inactive) | > 100 µM (inactive) | – | 63.8 µM (inactive) | > 100 µM (inactive) | > 100 µM (inactive) | > 100 µM (inactive) | > 100 µM (inactive) | > 100 µM (inactive) | > 100 µM (inactive) | > 100 µM (inactive) | > 100 µM (inactive) | > 100 µM (inactive) | > 100 µM (inactive) | > 100 µM (inactive)
4 | CC1OC(OC2C(OC(=O)[C@]34CCC(C)(C)C[C@H]3C3=CC[C@@H]5[C@@]6(C)CC[C@H](OC7OC(C(=O)O)C(O)C(O)C7O)C(C)(C)[C@@H]6CC[C@@]5(C)[C@]3(C)C[C@H]4O)OCC(O)C2O)C(O)C(O)C1OC1OCC(O)C(O)C1O (some centres not stated) | 12.7 µM (inactive) and 7.74 µM (inactive) | 17.5 µM (inactive) and 19.9 µM (inactive) | – | 17.1 µM and 17.3 µM | 8.93 µM (inactive) | 19.8 µM (inactive) and 21.3 µM (inactive) | – | – | 16 µM (inactive) and 27 µM (inactive) | – | 10.5 µM (inactive) and 14.9 µM (inactive) | 10.1 µM (inactive) and 15.5 µM (inactive) | – | – | 7.55 µM (inactive) and 6.01 µM (inactive) | 13 µM (inactive) and 16.3 µM (inactive) | 16.8 µM (inactive) and 16.4 µM (inactive) | 7.29 µM (inactive) and 11.6 µM (inactive) | 10.4 µM (inactive) and 15.3 µM (inactive) | –
5 | COC(=O)C1=CCC2c3[nH]c4ccccc4c3CCN2C1 (configuration not stated) | > 354 µM (inactive) | > 354 µM (inactive) | > 354 µM (inactive) | > 354 µM | > 354 µM (inactive) | – | > 354 µM (inactive) | – | > 354 µM (inactive) | – | – | > 354 µM (inactive) | > 354 µM (inactive) | > 354 µM (inactive) | > 354 µM (inactive) | > 354 µM (inactive) | 169 µM (inactive) | – | > 354 µM (inactive) | –
6 | COC(=O)c1ccccc1/C=C1\Cc2c(C)c3c(c(C)c2C1=O)CCC3 | > 100 µM (inactive) | > 100 µM (inactive) | > 100 µM (inactive) | > 100 µM | > 100 µM (inactive) | 24.5 µM (inactive) | > 100 µM (inactive) | > 100 µM (inactive) | > 100 µM (inactive) | > 100 µM (inactive) | > 100 µM (inactive) | > 100 µM (inactive) | 88.9 µM (inactive) | 6.27 µM (inactive) | > 100 µM (inactive) | > 100 µM (inactive) | > 100 µM (inactive) | > 100 µM (inactive) | 37.8 µM (inactive) | –
7 | NC1=Nc2ccccc2Sc2cccc(F)c21 | > 100 µM (inactive) | 25.2 µM (inactive) | > 100 µM (inactive) | > 100 µM | 24 µM (inactive) | – | 97.7 µM (inactive) | 74 µM (inactive) | 37.8 µM (inactive) | 43.7 µM (inactive) | > 100 µM (inactive) | 40.4 µM (inactive) | > 100 µM (inactive) | > 100 µM (inactive) | 35.1 µM (inactive) | > 100 µM (inactive) | 46.3 µM (inactive) | 84.5 µM (inactive) | 85.9 µM (inactive) | > 100 µM (inactive)
8 | Cc1cc(OC(=O)Nc2ccc(Cl)cc2)ccc1C(=S)Nc1ccccc1 | 31.8 µM (inactive) | 20.7 µM (inactive) | 26.3 µM (inactive) | 68.1 µM | 14 µM (inactive) | 91 µM (inactive) | 8.93 µM (inactive) | 54 µM (inactive) | 29.6 µM (inactive) | 48.1 µM (inactive) | 57 µM (inactive) | 38.5 µM (inactive) | > 100 µM (inactive) | 66.2 µM (inactive) | 64.3 µM (inactive) | > 100 µM (inactive) | 23.2 µM (inactive) | 73.5 µM (inactive) | > 100 µM (inactive) | –
9 | CCOC(OC1=C(C#N)CCC1)C(C)[Se]c1ccccc1 (configuration not stated) | 59.7 µM (inactive) | > 100 µM (inactive) | 46.7 µM (inactive) | 15.9 µM | 21 µM (inactive) | – | 92.9 µM (inactive) | – | 18 µM (inactive) | – | 39.8 µM (inactive) | 22.2 µM (inactive) | 21.6 µM (inactive) | 16.8 µM (inactive) | 11.6 µM (inactive) | – | 62.8 µM (inactive) | 26.5 µM (inactive) | 6.41 µM (inactive) | –
10 | CCCSc1ccc2[nH]c(/N=C/c3ccccc3)cc2c1 | 19.4 µM (inactive) | 13.5 µM (inactive) | – | 29 µM | – | 27.9 µM (inactive) | – | 5.75 µM (inactive) | 13.7 µM (inactive) | 21.9 µM (inactive) | 40.1 µM (inactive) | – | 20.5 µM (inactive) | 16.6 µM (inactive) | 3.51 µM (inactive) | 23.1 µM (inactive) | 19.7 µM (inactive) | 30.3 µM (inactive) | – | –
11 | O=C(CSc1nc(-c2ccccc2)c(-c2ccccc2)[nH]1)NNC(=S)Nc1ccccc1 | 81.7 µM (inactive) | 39.4 µM (inactive) | > 100 µM (inactive) | > 100 µM | 22.8 µM (inactive) | – | > 100 µM (inactive) | – | 33.7 µM (inactive) | – | > 100 µM (inactive) | 49.9 µM (inactive) | > 100 µM (inactive) | > 100 µM (inactive) | 57.5 µM (inactive) | > 100 µM (inactive) | > 100 µM (inactive) | 71.9 µM (inactive) | > 100 µM (inactive) | –
12 | COc1ccc(/C=C/c2cc(OC)cc(OC)c2)cc1 [TRISMETHOXYRESVERATROL] | 4.6 µM (inactive) | 3.97 µM (inactive) | 9.79 µM (inactive) | 4.57 µM | 2.56 µM (inactive) | – | 4.17 µM (inactive) | – | 4.51 µM (inactive) | – | 14 µM (inactive) | 4.38 µM (inactive) | 3.54 µM (inactive) | 6.07 µM (inactive) | 4.24 µM (inactive) | 4.98 µM (inactive) | 4.62 µM (inactive) | 18.2 µM (inactive) | 4.06 µM (inactive) | –
